Assay results published in ChEMBL document CHEMBL5465560, “Selectivity Literature for EUbOPEN Chemogenomic Library” (2024).

Tests used:
[1] = target: Phosphatidylinositol 4,5-bisphosphate 3-kinase catalytic subunit alpha isoform (Homo sapiens) (UniProt P42336); details: at 10 µM
Estrogen receptor = Estrogen receptor (Homo sapiens, UniProt P03372); assay: Selectivity interaction (Estrogen alpha receptor binding assay, human recombinant ) EUB0000877a ESR1
[2] = target: T1, Receptor-interacting serine/threonine-protein kinase 4 (Homo sapiens) (UniProt P57078); assay: Selectivity interaction (KinomeScan (DiscoverX)) EUB0000607a RIPK4; details: at 10 µM
T1 sequence (whole entry): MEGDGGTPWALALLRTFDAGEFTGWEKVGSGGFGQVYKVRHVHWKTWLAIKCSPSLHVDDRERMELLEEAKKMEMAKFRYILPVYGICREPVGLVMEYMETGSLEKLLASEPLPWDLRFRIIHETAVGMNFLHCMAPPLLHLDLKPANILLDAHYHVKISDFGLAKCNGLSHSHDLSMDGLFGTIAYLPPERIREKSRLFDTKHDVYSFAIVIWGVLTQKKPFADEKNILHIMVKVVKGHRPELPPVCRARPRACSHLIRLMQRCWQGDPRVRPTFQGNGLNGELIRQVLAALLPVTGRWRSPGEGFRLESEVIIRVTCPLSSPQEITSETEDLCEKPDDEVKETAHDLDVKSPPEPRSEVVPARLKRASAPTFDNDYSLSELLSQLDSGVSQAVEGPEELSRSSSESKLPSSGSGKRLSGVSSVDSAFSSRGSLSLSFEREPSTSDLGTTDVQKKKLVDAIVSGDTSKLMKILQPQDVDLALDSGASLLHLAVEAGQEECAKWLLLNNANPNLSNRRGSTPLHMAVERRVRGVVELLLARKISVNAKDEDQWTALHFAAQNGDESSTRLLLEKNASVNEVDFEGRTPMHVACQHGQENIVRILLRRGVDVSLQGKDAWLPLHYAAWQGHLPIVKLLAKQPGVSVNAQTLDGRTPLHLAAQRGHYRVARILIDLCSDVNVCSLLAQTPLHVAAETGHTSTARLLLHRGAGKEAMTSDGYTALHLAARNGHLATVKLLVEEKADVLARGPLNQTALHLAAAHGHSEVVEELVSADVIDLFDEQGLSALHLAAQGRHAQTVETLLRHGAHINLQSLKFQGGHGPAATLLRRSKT

[3] = target: Protein-tyrosine kinase 2-beta (Homo sapiens) (UniProt Q14289); assay: Selectivity interaction (Upstate Kinase Profiler service (Millipore)) EUB0000056c PTK2B; details: at 1 µM
Sequence of Protein-tyrosine kinase 2-beta (Homo sapiens) (Q14289 whole entry, looked up): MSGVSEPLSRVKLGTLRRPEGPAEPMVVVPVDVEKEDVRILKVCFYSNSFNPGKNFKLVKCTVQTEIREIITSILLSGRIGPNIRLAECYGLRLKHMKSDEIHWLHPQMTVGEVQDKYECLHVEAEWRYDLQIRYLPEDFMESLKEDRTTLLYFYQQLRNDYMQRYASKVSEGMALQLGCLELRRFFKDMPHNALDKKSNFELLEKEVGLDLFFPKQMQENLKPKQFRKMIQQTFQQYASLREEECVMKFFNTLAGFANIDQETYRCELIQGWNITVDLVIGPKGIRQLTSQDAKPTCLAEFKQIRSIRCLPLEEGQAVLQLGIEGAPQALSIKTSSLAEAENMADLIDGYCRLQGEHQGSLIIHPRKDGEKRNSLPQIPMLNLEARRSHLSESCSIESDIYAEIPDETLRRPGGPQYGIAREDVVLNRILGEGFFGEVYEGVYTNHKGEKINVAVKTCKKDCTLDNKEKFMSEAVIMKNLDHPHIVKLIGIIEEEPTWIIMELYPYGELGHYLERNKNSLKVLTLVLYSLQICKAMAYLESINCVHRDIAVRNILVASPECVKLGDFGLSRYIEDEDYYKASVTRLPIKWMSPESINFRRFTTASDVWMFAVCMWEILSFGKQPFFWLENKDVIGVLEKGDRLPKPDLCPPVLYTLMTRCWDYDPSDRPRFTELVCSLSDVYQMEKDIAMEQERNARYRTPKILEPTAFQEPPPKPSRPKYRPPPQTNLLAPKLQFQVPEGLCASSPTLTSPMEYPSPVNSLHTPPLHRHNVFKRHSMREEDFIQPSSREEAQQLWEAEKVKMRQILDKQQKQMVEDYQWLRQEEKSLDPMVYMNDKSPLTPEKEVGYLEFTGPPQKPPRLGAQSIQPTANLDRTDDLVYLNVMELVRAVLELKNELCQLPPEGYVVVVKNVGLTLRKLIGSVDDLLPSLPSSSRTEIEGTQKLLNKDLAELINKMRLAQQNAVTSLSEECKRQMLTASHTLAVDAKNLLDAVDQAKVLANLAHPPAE

[4] = target: T2, Serine/threonine-protein kinase Nek9 (Homo sapiens) (UniProt Q8TD19); details: at 10 µM
T2 sequence (whole entry): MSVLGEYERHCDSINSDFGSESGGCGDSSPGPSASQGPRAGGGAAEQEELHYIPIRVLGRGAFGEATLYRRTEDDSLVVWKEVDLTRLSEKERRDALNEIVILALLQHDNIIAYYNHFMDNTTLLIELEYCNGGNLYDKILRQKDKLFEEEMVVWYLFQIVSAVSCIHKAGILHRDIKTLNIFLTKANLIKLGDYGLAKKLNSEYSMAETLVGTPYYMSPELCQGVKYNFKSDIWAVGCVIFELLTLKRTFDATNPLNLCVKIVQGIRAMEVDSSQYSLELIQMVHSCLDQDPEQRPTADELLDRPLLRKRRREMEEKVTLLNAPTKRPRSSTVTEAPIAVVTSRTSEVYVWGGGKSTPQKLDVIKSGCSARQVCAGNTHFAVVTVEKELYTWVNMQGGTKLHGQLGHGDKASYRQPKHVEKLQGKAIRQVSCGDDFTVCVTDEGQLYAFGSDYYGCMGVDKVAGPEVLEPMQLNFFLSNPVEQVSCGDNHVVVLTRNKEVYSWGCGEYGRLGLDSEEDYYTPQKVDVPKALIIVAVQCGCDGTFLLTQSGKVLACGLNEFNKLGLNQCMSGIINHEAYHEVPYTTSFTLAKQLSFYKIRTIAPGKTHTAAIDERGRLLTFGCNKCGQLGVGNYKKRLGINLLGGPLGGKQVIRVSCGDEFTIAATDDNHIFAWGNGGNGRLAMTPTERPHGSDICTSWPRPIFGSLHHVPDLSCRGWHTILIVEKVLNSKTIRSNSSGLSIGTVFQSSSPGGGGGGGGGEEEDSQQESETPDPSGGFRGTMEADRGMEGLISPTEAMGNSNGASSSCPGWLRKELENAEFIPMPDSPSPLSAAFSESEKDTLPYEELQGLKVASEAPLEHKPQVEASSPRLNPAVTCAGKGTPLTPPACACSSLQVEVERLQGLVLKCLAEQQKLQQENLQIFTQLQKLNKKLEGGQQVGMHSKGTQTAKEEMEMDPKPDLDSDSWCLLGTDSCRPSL

[5] = target: Casein kinase I isoform delta (Homo sapiens, UniProt P48730); assay: Selectivity interaction (ActivX KiNativ screen (kinase selectivity in THP-1 cell lysates)) EUB0000639a CSNK1D; format: subcellular; details: lysate
Sequence of Casein kinase I isoform delta (P48730 whole entry, looked up, canonical isoform): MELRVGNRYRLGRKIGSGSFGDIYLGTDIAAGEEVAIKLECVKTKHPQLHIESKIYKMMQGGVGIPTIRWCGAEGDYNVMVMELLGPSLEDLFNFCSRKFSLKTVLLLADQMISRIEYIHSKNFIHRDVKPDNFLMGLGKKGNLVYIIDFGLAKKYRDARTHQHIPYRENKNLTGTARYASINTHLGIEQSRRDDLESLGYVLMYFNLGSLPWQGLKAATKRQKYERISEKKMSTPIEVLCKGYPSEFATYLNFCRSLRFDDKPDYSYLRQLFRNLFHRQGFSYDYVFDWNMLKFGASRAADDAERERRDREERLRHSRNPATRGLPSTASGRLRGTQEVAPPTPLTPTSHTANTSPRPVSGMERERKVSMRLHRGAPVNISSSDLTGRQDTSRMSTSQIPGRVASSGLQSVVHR

[6] = target: Mast/stem cell growth factor receptor Kit (Homo sapiens, UniProt P10721); assay: (§1) Selectivity interaction (KinomeScan (DiscoverX)) EUB0000655a KIT; details: at 10 µM
Sequence of Mast/stem cell growth factor receptor Kit (P10721 whole entry): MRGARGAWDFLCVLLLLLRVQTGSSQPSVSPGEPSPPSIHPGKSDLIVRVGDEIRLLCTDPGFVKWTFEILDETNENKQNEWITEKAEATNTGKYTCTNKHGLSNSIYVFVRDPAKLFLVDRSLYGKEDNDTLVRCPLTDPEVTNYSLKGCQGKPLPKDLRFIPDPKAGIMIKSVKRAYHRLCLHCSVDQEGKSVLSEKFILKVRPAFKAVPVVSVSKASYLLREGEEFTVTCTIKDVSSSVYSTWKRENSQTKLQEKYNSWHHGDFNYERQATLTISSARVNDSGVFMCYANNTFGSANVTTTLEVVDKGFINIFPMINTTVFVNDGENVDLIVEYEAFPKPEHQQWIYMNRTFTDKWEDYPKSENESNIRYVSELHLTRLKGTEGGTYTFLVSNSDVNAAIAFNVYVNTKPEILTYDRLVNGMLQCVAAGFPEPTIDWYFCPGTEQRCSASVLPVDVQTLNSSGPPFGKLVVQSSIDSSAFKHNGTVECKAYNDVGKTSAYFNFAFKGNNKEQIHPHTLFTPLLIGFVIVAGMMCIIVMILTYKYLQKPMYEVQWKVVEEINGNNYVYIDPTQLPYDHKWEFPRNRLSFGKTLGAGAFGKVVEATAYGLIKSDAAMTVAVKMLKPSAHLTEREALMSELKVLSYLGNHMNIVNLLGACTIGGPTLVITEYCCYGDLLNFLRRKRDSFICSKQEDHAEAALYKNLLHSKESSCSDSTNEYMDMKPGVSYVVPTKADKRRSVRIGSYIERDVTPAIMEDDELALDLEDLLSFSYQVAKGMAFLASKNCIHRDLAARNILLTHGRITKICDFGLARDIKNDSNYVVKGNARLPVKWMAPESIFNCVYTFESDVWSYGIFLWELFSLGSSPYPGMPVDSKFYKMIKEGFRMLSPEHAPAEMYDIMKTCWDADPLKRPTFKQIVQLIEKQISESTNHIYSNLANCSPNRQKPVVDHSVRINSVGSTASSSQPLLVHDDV

[7] = test system: Mast/stem cell growth factor receptor Kit (Homo sapiens), P10721 [L576P]; assay: as §1; details: at 10 µM
Sequence of Mast/stem cell growth factor receptor Kit (Homo sapiens), P10721 [L576P] (P10721 whole entry L576P): as the sequence (P10721 whole entry) above, with L576P counted along it

[8] = test system: Mast/stem cell growth factor receptor Kit (Homo sapiens), P10721 [D816V]; assay: as §1; details: at 10 µM
Sequence of Mast/stem cell growth factor receptor Kit (Homo sapiens), P10721 [D816V] (P10721 whole entry D816V): as the sequence (P10721 whole entry) above, with D816V counted along it

[9] = test system: Mast/stem cell growth factor receptor Kit (Homo sapiens), P10721 [V559D,V654A]; assay: as §1; details: at 10 µM
Sequence of Mast/stem cell growth factor receptor Kit (Homo sapiens), P10721 [V559D,V654A] (P10721 whole entry V559D/V654A): as the sequence (P10721 whole entry) above, with V559D, V654A counted along it

[10] = test system: Mast/stem cell growth factor receptor Kit (Homo sapiens), P10721 [V559D]; assay: as §1; details: at 10 µM
Sequence of Mast/stem cell growth factor receptor Kit (Homo sapiens), P10721 [V559D] (P10721 whole entry V559D): as the sequence (P10721 whole entry) above, with V559D counted along it

[11] = test system: Mast/stem cell growth factor receptor Kit (Homo sapiens), P10721 [V559D,T670I]; assay: as §1; details: at 10 µM
Sequence of Mast/stem cell growth factor receptor Kit (Homo sapiens), P10721 [V559D,T670I] (P10721 whole entry V559D/T670I): as the sequence (P10721 whole entry) above, with V559D, T670I counted along it

[12] = test system: Mast/stem cell growth factor receptor Kit (Homo sapiens), P10721 [A829P]; assay: as §1; details: at 10 µM
Sequence of Mast/stem cell growth factor receptor Kit (Homo sapiens), P10721 [A829P] (P10721 whole entry A829P): as the sequence (P10721 whole entry) above, with A829P counted along it

[13] = test system: Mast/stem cell growth factor receptor Kit (Homo sapiens), P10721 [D816H]; assay: as §1; details: at 10 µM
Sequence of Mast/stem cell growth factor receptor Kit (Homo sapiens), P10721 [D816H] (P10721 whole entry D816H): as the sequence (P10721 whole entry) above, with D816H counted along it

Sequence of Phosphatidylinositol 4,5-bisphosphate 3-kinase catalytic subunit alpha isoform (Homo sapiens) (P42336 whole entry, canonical isoform): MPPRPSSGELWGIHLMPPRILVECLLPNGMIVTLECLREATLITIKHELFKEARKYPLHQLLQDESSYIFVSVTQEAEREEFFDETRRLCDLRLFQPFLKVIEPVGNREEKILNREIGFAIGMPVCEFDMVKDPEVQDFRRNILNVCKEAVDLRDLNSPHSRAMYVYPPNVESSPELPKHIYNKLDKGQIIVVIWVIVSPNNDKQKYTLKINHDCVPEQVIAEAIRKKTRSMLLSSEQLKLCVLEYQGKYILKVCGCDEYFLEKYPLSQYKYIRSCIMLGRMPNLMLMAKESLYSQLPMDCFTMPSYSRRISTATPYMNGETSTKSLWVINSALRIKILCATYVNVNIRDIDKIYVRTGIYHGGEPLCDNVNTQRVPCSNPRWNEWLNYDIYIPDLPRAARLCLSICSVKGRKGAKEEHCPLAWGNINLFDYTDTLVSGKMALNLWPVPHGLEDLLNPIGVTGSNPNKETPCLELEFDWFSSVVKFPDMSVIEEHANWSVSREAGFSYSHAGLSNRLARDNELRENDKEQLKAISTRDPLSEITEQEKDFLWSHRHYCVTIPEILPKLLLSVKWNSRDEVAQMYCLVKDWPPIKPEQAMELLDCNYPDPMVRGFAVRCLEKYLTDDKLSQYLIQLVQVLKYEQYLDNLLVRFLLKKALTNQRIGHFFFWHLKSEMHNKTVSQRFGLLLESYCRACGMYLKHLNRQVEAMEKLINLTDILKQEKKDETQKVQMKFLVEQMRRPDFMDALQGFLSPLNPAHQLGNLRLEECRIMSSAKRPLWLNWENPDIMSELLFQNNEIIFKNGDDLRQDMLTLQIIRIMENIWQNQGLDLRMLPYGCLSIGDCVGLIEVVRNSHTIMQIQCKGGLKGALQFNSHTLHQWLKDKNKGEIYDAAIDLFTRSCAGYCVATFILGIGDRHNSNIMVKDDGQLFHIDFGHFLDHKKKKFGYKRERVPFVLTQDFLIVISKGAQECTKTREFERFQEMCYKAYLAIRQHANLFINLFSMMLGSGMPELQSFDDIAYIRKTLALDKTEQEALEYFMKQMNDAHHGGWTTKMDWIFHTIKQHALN
Sequence of Estrogen receptor (P03372 whole entry): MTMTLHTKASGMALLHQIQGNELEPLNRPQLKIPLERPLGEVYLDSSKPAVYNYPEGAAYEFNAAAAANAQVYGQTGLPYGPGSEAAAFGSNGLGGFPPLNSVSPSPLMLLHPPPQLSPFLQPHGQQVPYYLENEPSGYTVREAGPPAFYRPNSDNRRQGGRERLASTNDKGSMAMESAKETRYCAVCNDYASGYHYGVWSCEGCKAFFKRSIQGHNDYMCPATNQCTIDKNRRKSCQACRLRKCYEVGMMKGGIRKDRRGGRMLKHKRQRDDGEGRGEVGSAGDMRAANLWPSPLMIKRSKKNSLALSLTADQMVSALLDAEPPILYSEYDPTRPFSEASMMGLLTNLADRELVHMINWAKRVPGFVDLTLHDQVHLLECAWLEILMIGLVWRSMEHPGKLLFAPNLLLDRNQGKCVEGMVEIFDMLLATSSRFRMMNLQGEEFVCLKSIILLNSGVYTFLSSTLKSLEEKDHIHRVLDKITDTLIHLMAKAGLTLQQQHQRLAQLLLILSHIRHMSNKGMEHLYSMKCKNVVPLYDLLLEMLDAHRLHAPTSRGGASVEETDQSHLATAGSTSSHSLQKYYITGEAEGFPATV

CCC(=O)N1CC[C@H](Nc2ncnc3c2CN(c2cnc(OC)c(C(F)(F)F)c2)CC3)C1 [LENIOLISIB]
% of inhibition [1]: 96% | IC50 (Estrogen receptor): > 30 µM

CNC(=O)Nc1ccc(-c2nc(N3CC4CCC(C3)O4)c3cnn(C4CCC5(CC4)OCCO5)c3n2)cc1
% of control [2]: 98%

Cc1ccc(-c2ccc3c(ccc4sc5c(c43)NC[C@@H](C)NC5=O)n2)cn1
% of inhibition [3]: 12%

CCN(CC)CCCCNc1ncc2cc(-c3cc(OC)cc(OC)c3)c(NC(=O)NC(C)(C)C)nc2n1
% of control [4]: 100%

CC[C@@H]1[C@H](F)C(=O)N[C@@H]1COc1nccc2cc(C(N)=O)c(OC)cc12 [ZIMLOVISERTIB]
% of inhibition ([5]; at 0.01 µM): -6.6% | % of inhibition ([5]; at 0.04 µM): 20.3% | % of inhibition ([5]; at 0.2 µM): 53% | % of inhibition ([5]; at 1 µM): 77.8% | % of inhibition ([5]; at 5 µM): 94.8%

CN(C)CCOc1ccc(-c2nc(-c3ccncc3)c(-c3ccc4c(c3)CC/C4=N\O)[nH]2)cc1
% of control [6]: 75% | % of control [7]: 58% | % of control [8]: 79% | % of control [9]: 93% | % of control [10]: 65% | % of control [11]: 93% | % of control [12]: 86% | % of control [13]: 100%
